Test results from the Deep4Chem optical property database.

Test: solvent given as SMILES

O=C([O-])c1c(Cl)c(Cl)c(Cl)c(Cl)c1-c1c2cc(Cl)c(=O)c(Cl)c-2oc2c(Cl)c(O)c(Cl)cc12
absorption maximum (in O): 537 nm

c1ccc2c(c1)-c1ccccc1C21c2ccccc2-c2ccncc21
absorption maximum (in CC1CCCO1): 307 nm

Oc1ccc2ccccc2c1C1Nc2cccc3cccc(c23)N1
absorption maximum (in CC#N): 334 nm | absorption maximum (in CO): 333 nm | absorption maximum (in CS(C)=O): 350 nm | absorption maximum (in Cc1ccccc1): 337 nm

CC(C)[Si](C#Cc1c2cc3ccccc3cc2c(C#Cc2ccc(F)cc2)c2cc3ccccc3cc12)(C(C)C)C(C)C
absorption maximum (in ClCCl): 651 nm

CC(C)(C)c1cc2ccc3cccc4c3c2c(c1)c1nc2c3cc(C(C)(C)C)cc5ccc6cccc(c(=O)n2c41)c6c53
absorption maximum (in C1CCOC1): 395 nm | absorption maximum (in CC#N): 389 nm | absorption maximum (in CC(C)=O): 391 nm | absorption maximum (in CCCCCC): 393 nm | absorption maximum (in CCO): 390 nm | absorption maximum (in CCOC(C)=O): 390 nm | absorption maximum (in CO): 382 nm | absorption maximum (in CS(C)=O): 391 nm | absorption maximum (in Cc1ccc(C)cc1): 392 nm | absorption maximum (in ClC(Cl)(Cl)Cl): 395 nm | absorption maximum (in ClC(Cl)Cl): 395 nm | absorption maximum (in c1ccccc1): 395 nm

CCOC(=O)c1c(-c2cc3ccc(OC)cc3oc2=O)nn(-c2cccc(C)c2)c1C(=O)OCC
absorption maximum (in ClCCl): 337 nm

O=C(NCc1cc(=O)oc2cc([O-])c(Br)cc12)c1cccnc1
absorption maximum (in O): 370 nm

Cc1sc(Cl)cc1-c1nc(-c2ccccc2)[nH]c1-c1cc(Cl)sc1C
absorption maximum (in CC#N): 298 nm

COc1ccc(-c2cc3c(ccc4sccc43)s2)cc1
absorption maximum (in ClCCl): 333 nm

CCOC(=O)c1ccccc1-c1c2ccc(=[N+](CC)CC)cc-2oc2cc(N(CC)CC)ccc12
absorption maximum (in CC#N): 555 nm | absorption maximum (in CCO): 541 nm | absorption maximum (in CN(C)C=O): 560 nm | absorption maximum (in O): 552 nm

CCCCC(CC)Cn1c2cc(C#N)ccc2c2ccc(C#Cc3ccc4ccc5c(C#Cc6ccc7c8ccc(C#N)cc8n(CC(CC)CCCC)c7c6)ccc6ccc3c4c65)cc21 (configuration not stated)
absorption maximum (in ClCCl): 385 nm

COc1ccc(-c2cc(-c3ccccc3)c3n2[B-](F)(F)[N+]2=C4C=NC=CN4[B-](F)(F)[N+]2=C3)cc1
absorption maximum (in ClCCl): 534 nm

CC(C)c1cc(C(C)C)c(B2c3ccccc3Oc3cc(N4c5ccccc5C5(c6ccccc6Oc6ccccc65)c5ccccc54)ccc32)c(C(C)C)c1
absorption maximum (in Cc1ccccc1): 429 nm

Cn1c(=O)c(/N=N/c2cc(S(=O)(=O)O)ccc2S(=O)(=O)O)c(O)c2ccccc21
absorption maximum (in C1CCOC1): 428 nm | absorption maximum (in CC(C)=O): 421 nm | absorption maximum (in CCOC(C)=O): 423 nm | absorption maximum (in CO): 422 nm | absorption maximum (in CS(C)=O): 419 nm | absorption maximum (in Cc1ccccc1): 430 nm | absorption maximum (in ClCCl): 415 nm | absorption maximum (in O): 413 nm

Fc1c(F)c(-n2c3ccccc3c3ccccc32)c(F)c(F)c1/C=C/c1ccc(C(=C(c2ccccc2)c2ccccc2)c2ccccc2)cc1
absorption maximum (in Cc1ccccc1): 367 nm

CCCCCC#Cc1cc(C#CCCCCC)c2ccc3c(C(=O)c4ccccc4)cc(C#CCCCCC)c4ccc1c2c43
absorption maximum (in ClCCl): 416 nm

O=C(c1ccccc1)c1cc2ccc1CCc1ccc(c(-c3ccc(N(c4ccccc4)c4ccccc4)cc3)c1)CC2
absorption maximum (in Cc1ccccc1): 312 nm

c1ccc2c(-c3nc4sc5ccccc5c4s3)cccc2c1
absorption maximum (in CS(C)=O): 350 nm
